The text below walks through data of paper PMC7252619 (PLoS ONE, 2020).

Where two headings read alike, the source gives them in different places. Where only a bound is given, the exact number is not on record here.

The nature of data set [1]: WST-1 cytotoxicity assay on RPMI1788 cells (B-cell line). Format: cell-based, human. Conditions: human, RPMI1788 cells (B-cell line), mean of 4 independent measures, read-out: Cytotoxicity, WST-1 RPMI 1788 IC 50 (µM) Mean. For orientation: Tetrazolium dyes change colour on reduction, which living cells bring about.
Experimental: (§1) Compounds were prepared as 10 mM stock solutions in dimethylsulfoxide (DMSO)and were tested at 50-10-1-0.1-0.01 and 0.001 μM in the 4 assays.
The human B cell line RPMI1788 (American Type Culture Collection, USA) and the human T cell line Jurkat (European Collection of Cell Cultures, ECACC, England) were maintained in RPMI1640 culture medium (BioWhittaker®, Lonza, Verviers, Belgium) containing 10% foetal calf serum (FCS, HyClone® Thermo Scientific, United Kingdom) and 5 μg/mL gentamicin sulphate (BioWhittaker®, Lonza, Verviers, Belgium) at 37°C and 5% CO2.
WST-1 assays on RPMI-1788 cells and Jurkat cells were performed as follows: 20 μL of test compound dilution were added to each well containing exponential growing cells and the plates were incubated for 48 h at 37°C, 5% CO2. Untreated cells and positive control (1% triton X-100, for the last 15 min) served as reference for maximum and minimum viability. At the end of incubation 100 μL of supernatant were removed and replaced by 10 μL of WST-1 solution (Cell Proliferation Reagent WST-1, Roche Applied Science).
A further data set deals with T1, CK1d (Homo sapiens, UniProt P48730).
T1 construct: purchased ReactionBiology
The data set is described as follows: Kinase activity test (ReactionBiology), % enzyme activity relative to DMSO. In kind it is biochemical. Conditions: CK1d.

The subject of data set [2] is human PBMCs (responder cells) with RPMI1788 stimulator cells. The data set is described as follows: Mixed Lymphocyte Reaction (MLR, T cell assay), 3H-thymidine incorporation. In kind it is cell-based. Conditions: for IC50: Homo sapiens, RPMI-1788, mean of 4 independent measures, read-out: T-cell efficacy, MLR IC 50 (µM) Mean; for Selectivity Index (SI) MLR/B-cell: ratio of IC50 values.

The test system of the next data set is human CD19+ B cells. The data set is described as follows: B-cell assay: IgG production of ODN2006-stimulated primary B cells (AlphaLISA). In kind it is cell-based. Conditions: Homo sapiens, B-cell. (Alpha assays give light when donor and acceptor beads are brought close together.)
Data set [3] in a line: WST-1 cytotoxicity assay on Jurkat cells (T-cell line). In kind it is cell-based, human. Conditions: human, Jurkat cells (T-cell line), mean of 4 independent measures, read-out: Cytotoxicity, WST-1 Jurkat IC 50 (µM) Mean.
For another data set, the target named is VEGFR2 (Homo sapiens, UniProt P35968). The experiment in a line: Kinase activity test (ReactionBiology), % enzyme activity relative to DMSO. Format: biochemical. Further details: purchased ReactionBiology. Conditions: VEGFR2.
The target in the next data set is T2, NEK2 (Homo sapiens, UniProt P51955).
T2 construct: purchased ReactionBiology
T2 sequence (P51955 1-445): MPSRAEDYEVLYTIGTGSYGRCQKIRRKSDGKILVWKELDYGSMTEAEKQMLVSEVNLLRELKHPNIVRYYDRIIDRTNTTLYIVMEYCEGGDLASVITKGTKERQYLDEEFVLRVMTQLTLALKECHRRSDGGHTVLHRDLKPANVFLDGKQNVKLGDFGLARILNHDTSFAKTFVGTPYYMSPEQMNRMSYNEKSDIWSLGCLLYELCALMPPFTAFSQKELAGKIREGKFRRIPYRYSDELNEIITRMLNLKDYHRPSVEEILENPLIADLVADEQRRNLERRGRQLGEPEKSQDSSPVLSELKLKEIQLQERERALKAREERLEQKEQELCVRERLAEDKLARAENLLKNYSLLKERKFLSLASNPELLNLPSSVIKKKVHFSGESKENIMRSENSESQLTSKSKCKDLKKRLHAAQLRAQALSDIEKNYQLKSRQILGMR
Described as above. In kind it is biochemical.

The next data set deals with T3, DAPK1 (Homo sapiens, UniProt P53355).
T3 construct: purchased ReactionBiology
The data set is described as above. Format: biochemical. To be noted: DAPK1.

[4] abbreviates: 1 uM, Average, read-out: % Enzyme Activity (relative to DMSO controls), Average.
Setting [5] is: 1 uM, replicate Data 1, read-out: % Enzyme Activity (relative to DMSO controls), Data 1.
Setting [6] is: 1 uM, replicate Data 2, read-out: % Enzyme Activity (relative to DMSO controls), Data 2.
Setting [7] is: 10 uM, Average, read-out: % Enzyme Activity (relative to DMSO controls), Average.
Setting [8] is: 10 uM, replicate Data 1, read-out: % Enzyme Activity (relative to DMSO controls), Data 1.
Setting [9] is: 10 uM, replicate Data 2, read-out: % Enzyme Activity (relative to DMSO controls), Data 2.
Where [10] appears, read: compound 1μM, relative to DMSO controls, read-out: % Enzyme activity at 1μM.
The mark [11] stands for this setting: compound 10μM, relative to DMSO controls, read-out: % Enzyme activity at 10μM.
Setting [12] is: 168 h, IgG production, ODN2006 0.1 μM, 7 days, mean of 4 independent experiments, read-out: B-cell IC50.
[13] abbreviates: read-out: % Enzyme Activity (relative to DMSO controls), Average.
Where [14] appears, read: read-out: % Enzyme Activity (relative to DMSO controls), Data 1.
The mark [15] stands for this setting: read-out: % Enzyme Activity (relative to DMSO controls), Data 2.
Setting [16] is: NEK2, 1 uM, Average, read-out: % Enzyme Activity (relative to DMSO controls), Average.
Setting [17] is: NEK2, 1 uM, replicate Data 1, read-out: % Enzyme Activity (relative to DMSO controls), Data 1.
[18] abbreviates: NEK2, 1 uM, replicate Data 2, read-out: % Enzyme Activity (relative to DMSO controls), Data 2.
[19] abbreviates: NEK2, 10 uM, Average, read-out: % Enzyme Activity (relative to DMSO controls), Average.
The mark [20] stands for this setting: NEK2, 10 uM, replicate Data 1, read-out: % Enzyme Activity (relative to DMSO controls), Data 1.
The mark [21] stands for this setting: NEK2, 10 uM, replicate Data 2, read-out: % Enzyme Activity (relative to DMSO controls), Data 2.
Setting [22] is: NEK2, compound 1μM, relative to DMSO controls, read-out: % Enzyme activity at 1μM.
Where [23] appears, read: NEK2, compound 10μM, relative to DMSO controls, read-out: % Enzyme activity at 10μM.
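For inhibition of the kinase activity (strong/weak) in this document: VEGFR2 was one member of a ten-kinase screening panel testing marketed FDA-approved drugs.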

T3 sequence (P53355 whole entry): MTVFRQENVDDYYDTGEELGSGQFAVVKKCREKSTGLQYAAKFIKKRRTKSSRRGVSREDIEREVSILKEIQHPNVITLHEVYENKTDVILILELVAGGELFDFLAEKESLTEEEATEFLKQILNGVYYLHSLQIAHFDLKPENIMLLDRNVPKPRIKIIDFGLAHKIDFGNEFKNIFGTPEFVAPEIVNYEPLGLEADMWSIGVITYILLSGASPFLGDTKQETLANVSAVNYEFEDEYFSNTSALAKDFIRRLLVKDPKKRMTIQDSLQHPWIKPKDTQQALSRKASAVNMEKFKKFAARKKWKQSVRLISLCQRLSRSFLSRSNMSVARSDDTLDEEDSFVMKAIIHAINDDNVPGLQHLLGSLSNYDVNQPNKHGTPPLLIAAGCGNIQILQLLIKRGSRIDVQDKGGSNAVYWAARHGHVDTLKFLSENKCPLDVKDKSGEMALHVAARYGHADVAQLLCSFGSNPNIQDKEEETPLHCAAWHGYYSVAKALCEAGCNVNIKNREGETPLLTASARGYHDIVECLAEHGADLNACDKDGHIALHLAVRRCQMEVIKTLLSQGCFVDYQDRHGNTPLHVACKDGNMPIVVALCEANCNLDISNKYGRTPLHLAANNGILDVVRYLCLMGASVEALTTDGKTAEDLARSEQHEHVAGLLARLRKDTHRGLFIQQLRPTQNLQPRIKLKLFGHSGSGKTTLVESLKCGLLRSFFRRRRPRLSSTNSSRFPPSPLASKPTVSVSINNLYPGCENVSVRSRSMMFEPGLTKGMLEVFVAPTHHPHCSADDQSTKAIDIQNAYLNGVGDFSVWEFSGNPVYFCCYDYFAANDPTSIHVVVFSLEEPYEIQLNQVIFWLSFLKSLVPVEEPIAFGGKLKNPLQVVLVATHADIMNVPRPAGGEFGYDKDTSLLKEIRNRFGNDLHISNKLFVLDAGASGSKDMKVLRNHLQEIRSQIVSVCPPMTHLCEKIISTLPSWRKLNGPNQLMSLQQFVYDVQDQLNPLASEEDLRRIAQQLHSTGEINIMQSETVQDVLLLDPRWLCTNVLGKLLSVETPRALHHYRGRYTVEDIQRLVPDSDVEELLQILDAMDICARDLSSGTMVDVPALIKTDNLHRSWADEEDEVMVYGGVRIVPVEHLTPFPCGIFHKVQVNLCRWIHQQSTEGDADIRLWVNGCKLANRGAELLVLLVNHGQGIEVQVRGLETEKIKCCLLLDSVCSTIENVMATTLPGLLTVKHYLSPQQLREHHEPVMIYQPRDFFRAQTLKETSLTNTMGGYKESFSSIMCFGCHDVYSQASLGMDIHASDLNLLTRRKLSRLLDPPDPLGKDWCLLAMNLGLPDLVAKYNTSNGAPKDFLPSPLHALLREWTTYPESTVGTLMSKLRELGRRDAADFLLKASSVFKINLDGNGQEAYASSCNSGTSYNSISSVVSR
VEGFR2, sequence (P35968 20-1356): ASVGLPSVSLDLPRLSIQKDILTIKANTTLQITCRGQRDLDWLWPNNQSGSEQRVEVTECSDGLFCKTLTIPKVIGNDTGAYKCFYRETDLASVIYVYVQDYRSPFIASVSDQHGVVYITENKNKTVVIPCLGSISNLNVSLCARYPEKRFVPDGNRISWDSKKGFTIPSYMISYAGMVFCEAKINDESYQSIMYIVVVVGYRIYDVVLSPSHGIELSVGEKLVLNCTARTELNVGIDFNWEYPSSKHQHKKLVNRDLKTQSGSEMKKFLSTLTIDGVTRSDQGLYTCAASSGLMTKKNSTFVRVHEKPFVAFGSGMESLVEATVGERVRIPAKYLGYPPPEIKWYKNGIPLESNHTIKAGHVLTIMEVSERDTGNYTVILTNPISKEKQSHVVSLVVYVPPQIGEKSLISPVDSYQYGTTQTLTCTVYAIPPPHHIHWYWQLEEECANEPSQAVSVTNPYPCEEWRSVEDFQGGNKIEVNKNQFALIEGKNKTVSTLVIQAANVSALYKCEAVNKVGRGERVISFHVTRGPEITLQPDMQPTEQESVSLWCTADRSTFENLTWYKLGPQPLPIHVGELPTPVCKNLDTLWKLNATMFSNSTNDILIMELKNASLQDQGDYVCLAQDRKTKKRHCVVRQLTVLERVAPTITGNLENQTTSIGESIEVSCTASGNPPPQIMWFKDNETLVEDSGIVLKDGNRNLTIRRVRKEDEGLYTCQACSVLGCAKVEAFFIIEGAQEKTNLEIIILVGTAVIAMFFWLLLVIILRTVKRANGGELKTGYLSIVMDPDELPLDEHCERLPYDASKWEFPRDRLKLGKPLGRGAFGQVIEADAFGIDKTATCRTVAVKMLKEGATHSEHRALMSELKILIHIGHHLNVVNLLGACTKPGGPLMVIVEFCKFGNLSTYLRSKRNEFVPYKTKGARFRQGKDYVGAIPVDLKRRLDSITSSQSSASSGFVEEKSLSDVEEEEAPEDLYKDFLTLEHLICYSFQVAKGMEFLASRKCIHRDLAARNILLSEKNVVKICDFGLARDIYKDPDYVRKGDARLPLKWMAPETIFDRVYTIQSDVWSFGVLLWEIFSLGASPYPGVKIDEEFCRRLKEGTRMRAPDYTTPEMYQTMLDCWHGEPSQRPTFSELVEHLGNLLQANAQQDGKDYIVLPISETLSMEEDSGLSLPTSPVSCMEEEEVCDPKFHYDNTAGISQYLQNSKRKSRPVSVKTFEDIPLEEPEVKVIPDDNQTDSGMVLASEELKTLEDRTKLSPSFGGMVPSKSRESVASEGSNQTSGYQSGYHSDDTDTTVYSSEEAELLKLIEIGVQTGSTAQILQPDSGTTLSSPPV
T1 sequence (P48730 whole entry): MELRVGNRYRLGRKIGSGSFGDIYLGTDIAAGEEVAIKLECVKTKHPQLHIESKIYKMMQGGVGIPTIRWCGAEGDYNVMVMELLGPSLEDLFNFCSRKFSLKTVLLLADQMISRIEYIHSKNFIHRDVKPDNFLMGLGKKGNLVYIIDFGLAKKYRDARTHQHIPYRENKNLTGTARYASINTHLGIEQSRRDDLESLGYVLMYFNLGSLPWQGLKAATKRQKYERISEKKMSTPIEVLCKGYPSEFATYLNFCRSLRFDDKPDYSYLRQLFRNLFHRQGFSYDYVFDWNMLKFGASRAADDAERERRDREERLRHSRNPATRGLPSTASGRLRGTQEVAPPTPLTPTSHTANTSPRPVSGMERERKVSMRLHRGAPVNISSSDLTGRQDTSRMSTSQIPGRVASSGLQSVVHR
Experimental for human CD19+ B cells: as §1
Blood samples of healthy volunteers were collected at the Red Cross of Mechelen, Belgium.
Highly purified naive peripheral human B cells were separated from fresh human PBMCs on magnetic columns by positive selection using CD19 magnetic beads according to the manufacturer’s instructions (MACS Miltenyi Biotech, Leiden, The Netherlands). […] Freshly isolated human CD19+ B cells were then plated at 25 000 cells per well in a 384-well plate (Perkin Elmer, Zaventem, Belgium) in 55 μL in DMEM medium containing 10% FCS and 5 μg/mL gentamicin sulphate. After 7 days of stimulation with 0.1 μM ODN2006 (InvivoGen, Toulouse, France), supernatant was taken for analysis of IgG using the AlphaLISA human IgG kit according to the manufacturer’s instructions (Perkin Elmer, Zaventem, Belgium).

Take `CCN(CC)Cc1cc(Nc2ccnc3cc(Cl)ccc23)ccc1O` [Amodiaquine, reference compound]: the figures for the IC50 at 48 h in data set [1] and in data set [3] were 28.1 µM and 26.2 µM, respectively. Further, the remaining activity at 1 µM at CK1d (setting [4]) came out at 107%; on CK1d (setting [5]), 106%; on CK1d (setting [6]), 108%; at CK1d (setting [10]), 107%. In addition, the remaining activity at 10 µM on CK1d (setting [7]) is 69.1%; on CK1d (setting [8]), 70.5%; at CK1d (setting [9]) it was 67.6%; on CK1d (setting [11]) it was 69.1%. Further, the IC50 was 9.78 µM in data set [2] and 0.66 µM in the data set on human CD19+ B cells (setting [12]). Also, the “Selectivity Index (SI) MLR/B-cell” value in data set [2] stood at 14.73.
`Cc1cc(C#N)cc(C)c1Oc1nc(Nc2ccc(C#N)cc2)nc(N)c1Br` [Etravirine, reference compound]: the IC50 at 48 h was determined as 8 µM in data set [1] and 30.4 µM in data set [3]. The remaining activity at 1 µM at VEGFR2 (setting [4]), at VEGFR2 (setting [5]), at VEGFR2 (setting [6]) and at VEGFR2 (setting [10]) was 108% throughout. Moreover, the remaining activity at 10 µM on VEGFR2 (setting [7]) was 41.1%; on VEGFR2 (setting [8]) it was 42.6%; at VEGFR2 (setting [9]), 39.5%; on VEGFR2 (setting [11]), 41.1%. Further, the figures for the IC50 (in data set [2]; in the data set with human CD19+ B cells (setting [12])) were 7.27 µM and 5.9 µM, respectively. The “Selectivity Index (SI) MLR/B-cell” value in data set [2] is listed as 1.23.
For the compound `Oc1c(Cl)cc(Cl)c(Cl)c1Cc1c(O)c(Cl)cc(Cl)c1Cl` [Hexachlorophene, reference compound], the IC50 at 48 h in data set [1] turned out to be 4.2 µM; in data set [3], 5.88 µM. For the same compound, the remaining activity at 1 µM on NEK2 (setting [13]) was 84.9%; at NEK2 (setting [14]) it was 85.4%; at NEK2 (setting [15]), 84.5%; on NEK2 (read-out: % Enzyme activity at 1μM), 84.9%. The remaining activity at 10 µM on NEK2 (setting [13]) is 0.02%; at NEK2 (setting [14]) it was -0.21%; on NEK2 (setting [15]), 0.25%; at NEK2 (read-out: % Enzyme activity at 10μM) it was 0.02%. Also, the IC50 came to 1.42 µM in data set [2] and 5.34 µM in the data set on human CD19+ B cells (setting [12]).
As for `C=CC(=O)N1CCC[C@@H](n2nc(-c3ccc(Oc4ccccc4)cc3)c3c(N)ncnc32)C1` [Ibrutinib, reference compound], the figures for the IC50 at 48 h in data set [1] and in data set [3] were 0.7 µM and 14.7 µM, respectively. Besides, the remaining activity at 1 µM stood at 19.5% on VEGFR2 (setting [4]); 19.6% at VEGFR2 (setting [5]); 19.5% at VEGFR2 (setting [6]); 19.5% at VEGFR2 (setting [10]); 95.6% on DAPK1 (setting [4]); 97.4% at DAPK1 (setting [5]). Further, the remaining activity at 1 µM is 93.8% at DAPK1 (setting [6]) and 95.6% at DAPK1 (setting [10]). Further, the remaining activity at 10 µM at VEGFR2 (setting [8]) worked out at 1.46%; at VEGFR2 (setting [9]), 1.53%; at DAPK1 (setting [7]), 23.7%; on DAPK1 (setting [8]), 24%; on DAPK1 (setting [9]), 23.5%; on DAPK1 (setting [11]) it was 23.7%. The “inhibition of the kinase activity (strong/weak)” value at VEGFR2 (at 10 and 1 μM) is “strong (We considered a 50% inhibition of the kinase activity as strong)”. Besides, the IC50 is 1 µM in data set [2]; 0.0002 µM in the data set with human CD19+ B cells (setting [12]); 0.000181 µM with human CD19+ B cells (mean of 4 independent measures, read-out: B-cell efficacy, B cell IC 50 (µM) Mean).
Turning to `Nc1ccc2cc3ccc(N)cc3nc2c1` [Proflavine, reference compound], the figures for the IC50 at 48 h in data set [1] and in data set [3] were 3.01 µM and 5 µM, respectively. Also, the remaining activity at 1 µM on NEK2 (setting [16]), at NEK2 (setting [17]), at NEK2 (setting [18]) and on NEK2 (setting [22]) was 104% each time. The remaining activity at 10 µM at NEK2 (setting [19]) worked out at 51.6%; on NEK2 (setting [20]), 49%; at NEK2 (setting [21]), 54.1%; on NEK2 (setting [23]) it was 51.6%. Also, the IC50 is 4.39 µM in data set [2] and 0.59 µM in the data set on human CD19+ B cells (setting [12]). Also, the “Selectivity Index (SI) MLR/B-cell” value in data set [2] is 7.5.
In the case of `N[C@@H](Cc1cc(I)c(Oc2cc(I)c(O)c(I)c2)c(I)c1)C(=O)O` [Thyroxine, reference compound], the IC50 at 48 h in data set [1] and in data set [3] was greater than 50 µM each time. Also, the remaining activity at 1 µM is 90.2% on NEK2 (setting [16]); 91.2% on NEK2 (setting [17]); 89.1% on NEK2 (setting [18]); 90.2% on NEK2 (setting [22]); 106% at CK1d (setting [4]); 106% at CK1d (setting [5]). In addition, the remaining activity at 1 µM at CK1d (setting [6]) stood at 106%; on VEGFR2 (setting [4]), 104%; at VEGFR2 (setting [5]), 106%; at VEGFR2 (setting [6]), 103%. For the same compound, the remaining activity at 10 µM at NEK2 (setting [19]) turned out to be 48.1%; on NEK2 (setting [20]) it was 47.1%; on NEK2 (setting [21]), 49.1%; at NEK2 (setting [23]), 48.1%; at CK1d (setting [7]), 97.2%; at CK1d (setting [8]) it was 99.7%. Also, the remaining activity at 10 µM stood at 94.7% on CK1d (setting [9]), 86.6% on VEGFR2 (setting [7]), 89.7% on VEGFR2 (setting [8]) and 83.5% on VEGFR2 (setting [9]). Besides, the IC50 in data set [2] is greater than 50 µM; in the data set with human CD19+ B cells (setting [12]), 34.1 µM.
